The species named for assay [1] is Homo sapiens. The experiment in a line: Inhibition of calcineurin phosphatase activity in absence of calmodulin at 1 uM.
Assay [2] is filed under the species Homo sapiens. As to the kind of experiment: Inhibition of calcineurin phosphatase activity in presence of calmodulin at 1 uM.

The source made the active and inactive calls. The rule behind the calls is not given here.

Take `CC(C)C[C@H](NC(=O)[C@H](CCCCN)NC(=O)[C@H](CC(C)C)NC(=O)[C@H](CC(C)C)NC(=O)[C@H](CCCCN)NC(=O)[C@H](Cc1ccc(O)cc1)NC(=O)[C@H](Cc1ccccc1)NC(=O)[C@H](CC(C)C)NC(=O)[C@H](CCCNC(=N)N)NC(=O)[C@H](C)NC(=O)[C@H](CC(C)C)NC(=O)[C@H](CCCCN)NC(=O)[C@H](CCCCN)NC(=O)[C@@H](N)CC(C)C)C(=O)O`: the result in the assay listed under Homo sapiens [1] was inactive. The outcome in the assay filed under Homo sapiens [2] was Active.

Turning to H-LKKLIRLAYKLLKL-OH, the outcome in the assay listed under Homo sapiens [1] was inactive. Moreover, the Activity entry in the assay listed under Homo sapiens [2] was “Dose-dependent effect”.

For H-LKKLIRLFTKLLKL-OH, in the assay filed under Homo sapiens [1], the outcome was inactive. Moreover, the Activity result in the assay filed under Homo sapiens [2] was “Dose-dependent effect”.

On to H-LKKLLKLLKKLLKL-OH, for which the result in the assay filed under Homo sapiens [1] was inactive. Besides, the Activity result in the assay filed under Homo sapiens [2] is “Dose-dependent effect”.

These data come from ChEMBL document CHEMBL1144580, “Screening of alpha-helical peptide ligands controlling a calcineurin-phosphatase activity” (Bioorg Med Chem Lett, 2007).
